# System: LNCaP human prostate cancer cells
# Experiment: BrdU cell proliferation assay
# Type: cell-based
# Conditions: BrdU incorporation; for cell proliferation: LNCaP cells incubated with peptide, absorbance at 450 nm, at a concentration as lowest as 1 µM (Figure 1)
# Experimental: Peptides of sequences SEQ ID NO: 48 and SEQ ID NO: 49 were used in the experiments. They were resuspended in dimethylsulfoxide (DMSO) to obtain a concentration of about 50 mM. They were then diluted in fetal calf serum (FCS) before being added to culture cells at the indicated concentrations.
# FGC clone LNCaP human prostate cancer cells, commercialized by ATCC-LGC (Molsheim, France; ATCC Number: CRL-1740) were used.
# The cells were incubated for 48 hours with the caspasin inhibitor peptides at the following concentrations: 0.1, 0.3, 0.9, 3, 10, 20, 30, 60 and 90 µM.
# Cell proliferation was then assessed by quantifying the DNA precursor bromo-deoxyuridine (BrdU). This quantification was performed using the 5'-Bromo-2'-deoxy-uridine Labeling and Detection Kit (Roche) according to the manufacturer's instructions.
# LNCaP prostatic cells were incubated for 24 hours in a 96-well plastic plate containing 200 µl RPMI 1640 medium complemented with 1.5 g/I sodium carbonate, 4.5 g/I glucose, 10 mM HEPES, 1.0 mM sodium pyruvate, 10% foetal bovine serum (FBS) and antibiotics. Peptides were pre-incubated for 1 h30 in 20 µl of FBS at 37°C, then added to 180 µl of RPMI. Medium from plates was released and the medium containing peptides was added to the cells. The cells were then cultured for another 24 hours. BrdU incorporation was then determined by measuring the absorbance at 450 nm on an ELISA plate reader.
Substance,cell proliferation,"concentration of peptide at which a plateau was reached (cell proliferation) (LNCaP cells, concentrations tested 0.1-90 µM (Figure 1)) [µM]"
SEQ ID NO: 48: caspasin inhibitor peptide originating from a caspasin reactive centre loop; sequence only in the sequence listing (ATGIGI),drastic decrease of the cell proliferation,
SEQ ID NO: 49: caspasin inhibitor peptide originating from a caspasin reactive centre loop; sequence only in the sequence listing (FLMMITNKA),drastic decrease of the cell proliferation,3

# — patent EP2238984A1, “Caspasin inhibitor peptides” (INSTITUT NATIONAL DE LA RECHERCHE AGRONOMIQUE (INRA), priority 2009, dated 2010)
